The experiment deals with T1, human TLR7 (Homo sapiens, UniProt Q9NYK1).
T1 construct: host or cells: HEK-Blue-hTLR7
T1 sequence (Q9NYK1 27-1049): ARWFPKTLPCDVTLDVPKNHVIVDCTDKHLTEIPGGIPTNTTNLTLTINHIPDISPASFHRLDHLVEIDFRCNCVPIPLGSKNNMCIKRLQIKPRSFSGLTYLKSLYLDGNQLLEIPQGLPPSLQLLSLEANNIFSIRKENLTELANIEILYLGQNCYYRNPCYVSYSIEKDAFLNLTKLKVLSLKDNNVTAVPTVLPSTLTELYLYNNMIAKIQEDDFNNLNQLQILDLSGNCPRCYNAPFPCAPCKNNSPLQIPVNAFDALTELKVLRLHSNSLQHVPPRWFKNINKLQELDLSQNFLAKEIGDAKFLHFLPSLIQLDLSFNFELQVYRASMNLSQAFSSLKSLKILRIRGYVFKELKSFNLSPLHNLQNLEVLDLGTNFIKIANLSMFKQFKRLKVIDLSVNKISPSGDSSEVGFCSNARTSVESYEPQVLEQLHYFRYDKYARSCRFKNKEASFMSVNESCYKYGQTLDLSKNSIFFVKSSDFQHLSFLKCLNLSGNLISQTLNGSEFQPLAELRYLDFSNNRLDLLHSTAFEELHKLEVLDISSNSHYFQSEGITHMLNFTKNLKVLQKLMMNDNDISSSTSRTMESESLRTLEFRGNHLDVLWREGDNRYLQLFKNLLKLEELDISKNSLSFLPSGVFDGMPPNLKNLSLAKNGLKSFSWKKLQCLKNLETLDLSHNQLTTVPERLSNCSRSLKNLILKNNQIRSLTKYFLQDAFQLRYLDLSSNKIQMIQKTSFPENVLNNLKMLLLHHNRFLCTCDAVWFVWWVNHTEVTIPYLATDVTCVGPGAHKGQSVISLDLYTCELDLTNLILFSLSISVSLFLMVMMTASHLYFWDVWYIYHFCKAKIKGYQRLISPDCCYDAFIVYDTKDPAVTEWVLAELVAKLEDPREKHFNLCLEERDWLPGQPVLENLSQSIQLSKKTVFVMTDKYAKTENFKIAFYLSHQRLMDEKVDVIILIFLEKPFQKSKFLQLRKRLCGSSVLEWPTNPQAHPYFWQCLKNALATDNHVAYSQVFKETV
The experiment can be described thus: TLR7 reporter gene assay (HEK-Blue-hTLR7, NFkB/AP-1 inducible SEAP). Format: cell-based. The settings on record: HEK-Blue-hTLR7; read-out: EC50 in the TLR7 reporter gene assay. The protocol: 2) TLR Stimulation Assay:
Compounds are tested for stimulation of human TLR7 and TLR8, respectively, via reporter gene expression analyzed in a cell line stably transfected with human TLR7 and TLR8, respectively, and coexpressing an NFkB/AP-1 inducible SEAP reporter gene. Stimulation with a TLR ligand leads to NFkB/AP-1 activation and upregulation and secretion of SEAP, which can be measured in the supernatant with QuantiBlue™ detection system (InvivoGen).
Cell lines used were either HEK-Blue-hTLR7 (InvivoGen #hkb-htlr7) or HEK-Blue-hTLR8 (InvivoGen #hkb-htlr8). Cells were cultured following manufacturer's instructions.
Assay: • prepare cell suspensions of each cell line with Nv=0.11×10^6 cells/ml in medium (DMEM 4.5 g/l Glucose, 2-4 mM L-glutamine+10% FBS) without antibiotics (Nv=number of living cells) • add 180 μl of the suspensions per well of a 96 well flat bottom cell culture plates (coster, #3506) • incubate the plates overnight at 37° C. and 5% CO2 • prepare samples and controls as solutions in DMSO: R848, CL075 (TLR 7/8 agonist by InvivoGen) and Guardiquimod each to a final concentration of 10 μM, ODN2006 (InvivoGen) and ODN2216 (InvivoGen) each to a final concentration 2 μM; • compounds of the invention are applied in dilution series to final concentrations of 30, 10, 3, 1, etc. μM • add 20 μl diluted compounds and controls (see above) to the wells • incubate plates for 20-24 h at 37° C. and 5% CO2 • prepare QuantiBlue™ (InvivoGen #10H19-MM) solution, following manufacturer's instructions: solubilize the powder of one pouch in 100 ml MilliQ grade water, heat at 37° C. in a water bath for about 30 min, filter the solution with a paper filter • add 100 μl prepared QuantiBlue™ solution in each well of a 96 well plate with flat bottom • add […] cell culture supernatant from the induced cells per well • incubate plates for 1 to 1.5 h at 37° C. (until an intense blue color has developed) • read OD at 620 nm with a plate reader • calculate EC50 from data points
(In a reporter assay the amount or activity of a reporter protein is the signal.)

As to `CCc1nc2c(N)nc3ccccc3c2n1CCCCN(C(C)=O)C1CCOCC1` [Example 1, N-(4-(4-Amino-2-ethyl-1H-imidazo[4,5-c]quinolin-1-yl)butyl)-N-(tetrahydro-2H-pyran-4-yl)acetamide], the EC50 amounted to 44 nM.

What is called EC50 is the concentration that produces a half-maximal response.
